Data reported in PubChem BioAssay AID330 (DTP/NCI, 2004).
Several values for one entry are separate records, joined by “and”; a condition that tells them apart may be missing. Equal entries are not always repeated. Inconclusive results and toxic doses are left out. Rule for the calls: active = survival T/C of 150% or more; inactive = T/C below 125% in these data.

Tested on: P388 leukemia ip, CD2F1 mice, survival T/C
Assay: NCI In Vivo Anticancer Drug Screen. Data for tumor model P388 Leukemia (intraperitoneal) in CD2F1 (CDF1) mice
Conditions: endpoint: median survival time, higher = longer survival
In short: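 Mice carrying the transplanted tumor received test compound or vehicle. Survival was recorded in each group, and the value is the treated-group measurement divided by that of the vehicle-treated control group.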

[1] = dose: 60.0 mg/kg/injection, schedule: Q01DX005 (ip), vehicle: Klucel (hydroxypropylcellulose) (HPC)
[2] = dose: 120.0 mg/kg/injection, schedule: Q01DX005 (ip), vehicle: Klucel (hydroxypropylcellulose) (HPC)
[3] = dose: 100.0 mg/kg/injection, schedule: Q04DX003 (ip), vehicle: saline with Tween-80
[4] = dose: 200.0 mg/kg/injection, schedule: Q04DX003 (ip), vehicle: saline with Tween-80
[5] = dose: 400.0 mg/kg/injection, schedule: Q04DX003 (ip), vehicle: saline with Tween-80
[6] = dose: 60.0 mg/kg/injection, schedule: Q01DX005 (ip), vehicle: saline
[7] = dose: 120.0 mg/kg/injection, schedule: Q01DX005 (ip), vehicle: saline
[8] = dose: 50.0 mg/kg/injection, schedule: Q01DX009 (ip), vehicle: saline
[9] = dose: 100.0 mg/kg/injection, schedule: Q01DX009 (ip), vehicle: saline
[10] = dose: 60.0 mg/kg/injection, schedule: Q01DX005 (ip), vehicle: saline with Tween-80
[11] = dose: 120.0 mg/kg/injection, schedule: Q01DX005 (ip), vehicle: saline with Tween-80
[12] = dose: 50.0 mg/kg/injection, schedule: Q01DX009 (ip), vehicle: Klucel (hydroxypropylcellulose) (HPC)
[13] = dose: 100.0 mg/kg/injection, schedule: Q01DX009 (ip), vehicle: Klucel (hydroxypropylcellulose) (HPC)
[14] = dose: 200.0 mg/kg/injection, schedule: Q01DX009 (ip), vehicle: Klucel (hydroxypropylcellulose) (HPC)

Measured: T/C

C=CCSc1n[nH]c(-c2cccs2)n1
inactive: dose: 30.0 mg/kg/injection, schedule: Q01DX005 (ip), vehicle: Klucel (hydroxypropylcellulose) (HPC) 104 % of control | [1] 109 % of control | [2] 109 % of control | dose: 240.0 mg/kg/injection, schedule: Q01DX005 (ip), vehicle: Klucel (hydroxypropylcellulose) (HPC) 109 % of control

O=C1c2ccccc2C(=O)N1Cc1ccccc1
inactive: [3] 104 % of control | [4] 95 % of control | [5] 100 % of control

Clc1nc(Cl)nc(Nc2ncccn2)n1
inactive: [1] 100 % of control | [2] 102 % of control

COC/C(Br)=C\SC#N (tested in a mixture with another compound)
inactive: dose: 3.75 mg/kg/injection, schedule: Q01DX005 (ip), vehicle: saline with Tween-80 120 % of control | dose: 7.5 mg/kg/injection, schedule: Q01DX005 (ip), vehicle: saline with Tween-80 122 % of control

CCCCCCCCCCCCNC(=O)C[n+]1cccc(C(=O)Nc2ccccc2)c1
inactive: dose: 3.0 mg/kg/injection, schedule: Q01DX009 (ip), vehicle: saline with Tween-80 100 % of control | dose: 6.0 mg/kg/injection, schedule: Q01DX009 (ip), vehicle: saline with Tween-80 104 % of control | dose: 12.0 mg/kg/injection, schedule: Q01DX009 (ip), vehicle: saline with Tween-80 95 % of control

O=C1CC2(CCCCC2)C(=O)N1c1ccc(-c2ccc(N3C(=O)CC4(CCCCC4)C3=O)cc2)cc1
inactive: dose: 100.0 mg/kg/injection, schedule: Q04DX002 (ip), vehicle: Klucel (hydroxypropylcellulose) (HPC) 89 % of control | dose: 200.0 mg/kg/injection, schedule: Q04DX002 (ip), vehicle: Klucel (hydroxypropylcellulose) (HPC) 88 % of control | dose: 400.0 mg/kg/injection, schedule: Q04DX002 (ip), vehicle: Klucel (hydroxypropylcellulose) (HPC) 91 % of control

Cn1cnc2cc(NCCCc3ccccc3)c([N+](=O)[O-])cc2c1=O
inactive: [3] 103 % of control | [4] 101 % of control | [5] 105 % of control

CC(=O)[C@H]1CC[C@H]2[C@@H]3C[C@H](C)C4=CC(=O)CC[C@]4(C)[C@@]3(F)[C@@H](O)C[C@]12C
inactive: [3] 95 % of control | [4] 87 % of control | [5] 100 % of control

Oc1cc2c(cc1O)C(c1ccccc1)CNCC2 (stereo unspecified)
inactive: dose: 25.0 mg/kg/injection, schedule: Q01DX009 (ip), vehicle: saline with Tween-80 103 % of control | dose: 50.0 mg/kg/injection, schedule: Q01DX009 (ip), vehicle: saline with Tween-80 97 % of control | dose: 100.0 mg/kg/injection, schedule: Q01DX009 (ip), vehicle: saline with Tween-80 104 % of control

O=[N+]([O-])c1ccc(NN=NCCCl)cc1
inactive: dose: 12.5 mg/kg/injection, schedule: Q01DX009 (ip), vehicle: distilled water + Tween-80 109 % of control

CC(=O)Oc1cc(OC(C)=O)c2c(c1)C(=O)c1cc(C)cc(OC(C)=O)c1C2=O
inactive: dose: 100.0 mg/kg/injection, schedule: Q04DX002 (ip), vehicle: saline with Tween-80 90 % of control and 96 % of control | dose: 200.0 mg/kg/injection, schedule: Q04DX002 (ip), vehicle: saline with Tween-80 90 % of control | dose: 400.0 mg/kg/injection, schedule: Q04DX002 (ip), vehicle: saline with Tween-80 90 % of control

Cn1cc(C(=O)O)c(=O)c2ccc(/C=C/c3ccc([N+](=O)[O-])o3)nc21
inactive: dose: 3.12 mg/kg/injection, schedule: Q01DX009 (ip), vehicle: saline 92 % of control | dose: 6.25 mg/kg/injection, schedule: Q01DX009 (ip), vehicle: saline 97 % of control | dose: 12.5 mg/kg/injection, schedule: Q01DX009 (ip), vehicle: saline 111 % of control | dose: 25.0 mg/kg/injection, schedule: Q01DX009 (ip), vehicle: saline 103 % of control

CN(O)C(=O)C(C)(C)C
inactive: dose: 100.0 mg/kg/injection, schedule: Q01DX005 (ip), vehicle: saline with Tween-80 99 % of control | dose: 200.0 mg/kg/injection, schedule: Q01DX005 (ip), vehicle: saline with Tween-80 103 % of control | dose: 400.0 mg/kg/injection, schedule: Q01DX005 (ip), vehicle: saline with Tween-80 103 % of control

CC(C)N(c1cc(=O)nc2ccccn12)C(C)C
inactive: [6] 101 % of control | [7] 98 % of control | dose: 240.0 mg/kg/injection, schedule: Q01DX005 (ip), vehicle: saline 100 % of control

CCC(c1ccc(OCC(=O)NCCCl)cc1)C(CC)c1ccc(OCC(=O)NCCCl)cc1 (stereo unspecified)
inactive: [8] 97 % of control | [9] 93 % of control | dose: 200.0 mg/kg/injection, schedule: Q01DX009 (ip), vehicle: saline 88 % of control

COc1ccc2c(c1)[C@@]13CCCC[C@H]1[C@@H](C2)[N+](CC1CC1)=CC3=NO
inactive: dose: 50.0 mg/kg/injection, schedule: Q01DX005 (ip), vehicle: Klucel (hydroxypropylcellulose) (HPC) 111 % of control | dose: 100.0 mg/kg/injection, schedule: Q01DX005 (ip), vehicle: Klucel (hydroxypropylcellulose) (HPC) 102 % of control | dose: 200.0 mg/kg/injection, schedule: Q01DX005 (ip), vehicle: Klucel (hydroxypropylcellulose) (HPC) 105 % of control

CCCC(O)C[N+](=O)[O-] (stereo unspecified)
inactive: dose: 100.0 mg/kg/injection, schedule: Q04DX003 (ip), vehicle: saline 109 % of control | dose: 200.0 mg/kg/injection, schedule: Q04DX003 (ip), vehicle: saline 109 % of control | dose: 400.0 mg/kg/injection, schedule: Q04DX003 (ip), vehicle: saline 118 % of control

COc1cccc2c1C(=O)c1c(O)c3c(c(O)c1C2=O)C[C@@](O)(C(C)=O)C[C@@H]3OC1CC(NCC(c2ccccc2)c2ccccc2)C(O)C(C)O1 (stereo partly specified)
inactive: dose: 6.25 mg/kg/injection, schedule: Q04DX003 (ip), vehicle: water 100 % of control | dose: 12.5 mg/kg/injection, schedule: Q04DX003 (ip), vehicle: water 101 % of control | dose: 25.0 mg/kg/injection, schedule: Q04DX003 (ip), vehicle: water 105 % of control | dose: 50.0 mg/kg/injection, schedule: Q04DX003 (ip), vehicle: water 110 % of control | dose: 100.0 mg/kg/injection, schedule: Q04DX003 (ip), vehicle: water 117 % of control

O=C(O)C(CS)NSc1ccccc1[N+](=O)[O-] (stereo unspecified)
inactive: [10] 111 % of control | [11] 112 % of control | dose: 240.0 mg/kg/injection, schedule: Q01DX005 (ip), vehicle: saline with Tween-80 102 % of control

Cc1ccc(S(=O)(=O)N/N=C/c2c(Cl)[nH]c3cc(C)c(O)cc23)cc1
inactive: dose: 25.0 mg/kg/injection, schedule: Q01DX001 (ip), vehicle: Klucel (hydroxypropylcellulose) (HPC) 100 % of control | dose: 50.0 mg/kg/injection, schedule: Q01DX001 (ip), vehicle: Klucel (hydroxypropylcellulose) (HPC) 105 % of control | dose: 100.0 mg/kg/injection, schedule: Q01DX001 (ip), vehicle: Klucel (hydroxypropylcellulose) (HPC) 103 % of control and 91 % of control | dose: 200.0 mg/kg/injection, schedule: Q01DX001 (ip), vehicle: Klucel (hydroxypropylcellulose) (HPC) 103 % of control | dose: 400.0 mg/kg/injection, schedule: Q01DX001 (ip), vehicle: Klucel (hydroxypropylcellulose) (HPC) 91 % of control

C/C(O)=C(/N=Nc1ccccc1)C(=O)O
inactive: [10] 110 % of control | [11] 98 % of control

CC(O)c1cc2c(o1)C(=O)c1cccc(O)c1C2=O (stereo unspecified)
inactive: dose: 9.38 mg/kg/injection, schedule: Q01DX005 (ip), vehicle: Klucel (hydroxypropylcellulose) (HPC) 95 % of control | dose: 18.75 mg/kg/injection, schedule: Q01DX005 (ip), vehicle: Klucel (hydroxypropylcellulose) (HPC) 95 % of control | dose: 37.5 mg/kg/injection, schedule: Q01DX005 (ip), vehicle: Klucel (hydroxypropylcellulose) (HPC) 95 % of control

CC(C)(C)c1ccc(NC(=O)Oc2ccccc2)cc1
inactive: [12] 102 % of control | [13] 105 % of control | [14] 102 % of control

CC12CCCC(O1)C(C)(C)O2 (stereo unspecified)
inactive: [8] 99 % of control | [9] 89 % of control

Cc1[nH]c2ccc(N(C)C)cc2c(=O)c1CN1CCCCC1
inactive: [12] 106 % of control | [13] 100 % of control | [14] 108 % of control

CSCCCCN=[N+]=[N-]
inactive: [6] 104 % of control | [7] 112 % of control

CON1C(=O)C(c2cccs2)=C2SCC=C21
inactive: dose: 15.0 mg/kg/injection, schedule: Q01DX005 (ip), vehicle: saline with Tween-80 107 % of control | dose: 30.0 mg/kg/injection, schedule: Q01DX005 (ip), vehicle: saline with Tween-80 112 % of control | [10] 112 % of control and 114 % of control | [11] 112 % of control
